Experimental data as given in patent US10760110B2, “Antibiotic testing and screening system” (priority 2017, dated 2020).
Converted amounts (≈) assume the structure as drawn. Like-named read-outs stand apart in the source and are kept apart here.

What was measured:
[1] = system: K. pneumoniae NVT1001 and its ΔompK35/36 and/or ΔramR mutants; test: Etest MIC, OmpK35/36 loss and AcrAB-TolC overexpression (ΔramR) strains (Table 6); assay type: cell-based, Klebsiella pneumoniae; conditions: Klebsiella pneumoniae
Summary of the method: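 MICs were read by Etest strip following the manufacturer's instructions, and values falling between standard two-fold dilutions were rounded up to the next two-fold step. Ceftazidime and cefotaxime were also tested by CLSI broth microdilution and interpreted against CLSI 2017 breakpoints; cephalothin used CLSI 2015 and moxifloxacin EUCAST 2017.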

[2] = system: K. pneumoniae NVT1001 ΔramRΔompK35/36 mutant and its revertants; test: Etest MIC, ΔramRΔompK35/36 mutant and its revertants (Table 7); assay type: cell-based; conditions: Klebsiella pneumoniae
[3] = system: A. baumannii KW1 and its AdeR/AdeS mutants; test: Etest MIC, AdeABC overexpression via AdeR or AdeS mutation (Table 16); assay type: cell-based, Acinetobacter baumannii; conditions: Acinetobacter baumannii
Source text: DNA fragments of the entire adeR, adeS, gyrA and parC along with their flanking regions were amplified from A. baumannii KW1 using PCR with specific primer pairs and then cloned into plasmid pUT-KB. The QuikChange site-directed mutagenesis kit (Stratagene) was used to generate mutations in the adeR, adeS, gyrA and parC genes in the plasmids using the methods described by the manufacturer. For homologous recombination, plasmids containing mutations in the adeR, adeS, gyrA or parC gene were transformed into E. coli S17-1 λpir^23 via electroporation and mobilized into A. baumannii KW1 via conjugation. Single-crossover strains were selected from Luria-Bertani (LB) plates supplemented with cefotaxime (1 μg/ml) and kanamycin ([…]), as the growth of non-A. baumannii contaminants is suppressed by cefotaxime (1 μg/ml). The kanamycin-resistant transconjugants were selected and the insertion of plasmids was verified via PCR. After incubation in 20 ml brain heart infusion (BHI) broth for 6 hours in the absence of kanamycin at 37° C., the fully grown cultures were spread onto LB plates supplemented with 10% sucrose. After the double crossover occurred, the sucrose-resistant and kanamycin-susceptible colonies were selected, and the gene mutations were confirmed via PCR.
(§1) The MICs of antibiotics were determined using the Etest (Biodisk AB, Sweden) according to the manufacturer's instructions. The MICs from the Etest, which fall between standard two-fold dilutions, were rounded up to the next highest two-fold value. The MICs of ceftazidime and cefotaxime against K. pneumoniae NVT1001 harbouring the pACYC177 plasmid with blaOXA-48 were further determined using a broth microdilution test according to the recommendations of the CLSI,^25 and the results were interpreted according to the breakpoints established by the CLSI in 2017.^25 Meanwhile, due to the lack of CLSI breakpoints in 2016 and 2017, the results for cephalothin were interpreted according to the breakpoints established by the CLSI in 2015,^26 and the results for moxifloxacin were interpreted according to the breakpoints established by the EUCAST in 2017.^27

[4] = system: K. pneumoniae NVT1001 and ΔramR strains with tet resistance gene plasmids; test: Etest MIC of tetracyclines, AcrAB-TolC overexpression (ΔramR) and/or tet resistance gene (Table 14); assay type: cell-based, Klebsiella pneumoniae; conditions: for MIC: Klebsiella pneumoniae
Method: DNA fragments of the resistance genes along with their flanking regions were amplified from clinical plasmids via PCR with specific primer pairs. The resulting PCR fragments were digested and then cloned into the plasmid pACYC177 or pACYC184. The resulting plasmids were then transformed into K. pneumoniae strain NVT1001 via electroporation. The recombinant bacteria were plated onto LB agar plates containing kanamycin (50 mg/L) or chloramphenicol (50 mg/L), and the presence of the cloned gene was confirmed via PCR and DNA sequencing.
as §1

[5] = system: A. baumannii KW1 strains with tet resistance gene plasmids; test: Etest MIC of tetracyclines, tet resistance gene (Table 20); assay type: cell-based, Acinetobacter baumannii; conditions: for MIC: Acinetobacter baumannii
Method: DNA fragments of the resistance genes along with their flanking regions were amplified from clinical plasmids via PCR with specific primer pairs. The resulting PCR fragments were digested and then cloned into the plasmid pYMAb5 or pYMAb5Tc. The resulting plasmids were then transformed into A. baumannii KW1 via electroporation.
as §1

Q: For `CN(C)c1cc(NC(=O)CNC(C)(C)C)c(O)c2c1C[C@H]1C[C@H]3[C@H](N(C)C)C(O)=C(C(N)=O)C(=O)[C@@]3(O)C(O)=C1C2=O` [Tigecycline, tigecycline], which MIC ([1]; WT, NVT1001, read-out: MIC) is on record?
A: The MIC was 1 µg/mL (≈ 1.71 µM).

Q: And the MIC ([1]; Δ35, ΔompK35 mutant)?
A: The MIC was 1 µg/mL (≈ 1.71 µM).

Q: And the MIC ([1]; Δ35/36, ΔompK35/36 mutant)?
A: The MIC was 1 µg/mL (≈ 1.71 µM).

Q: What about the MIC ([1]; Δ36, ΔompK36 mutant) of the same compound?
A: Its MIC is 1 µg/mL (≈ 1.71 µM).

Q: And the MIC ([1]; ΔramR mutant)?
A: Its MIC is 8 µg/mL (≈ 13.7 µM).

Q: What about the MIC ([1]; ΔramRΔ35, ΔramRΔompK35 mutant) of the same compound?
A: The MIC was 8 µg/mL (≈ 13.7 µM).

Q: What about the MIC ([1]; ΔramRΔ35/36, ΔramRΔompK35/36 mutant) of the same compound?
A: The MIC was 8 µg/mL (≈ 13.7 µM).

Q: What about the MIC ([1]; ΔramRΔ36, ΔramRΔompK36 mutant) of the same compound?
A: The MIC was 8 µg/mL (≈ 13.7 µM).

Q: What about the MIC ([2]; ΔramRΔompK35/36::ompK35/36 revertant) of the same compound?
A: Its MIC is 8 µg/mL.

Q: And the MIC ([2]; ΔramRΔompK35/36::ompK35 revertant)?
A: Its MIC is 8 µg/mL.

Q: And the MIC ([2]; ΔramRΔompK35/36::ompK36 revertant)?
A: The MIC was 8 µg/mL.

Q: What about the MIC ([2]; ΔramRΔompK35/36::ramR revertant) of the same compound?
A: Its MIC is 1 µg/mL.

Q: And the MIC ([2]; ΔramRΔompK35/36::ramR::ompK35/36 revertant)?
A: The MIC was 1 µg/mL.

Q: What about the MIC ([2]; ΔramRΔompK35/36::ramR::ompK35 revertant) of the same compound?
A: The MIC was 1 µg/mL.

Q: And the MIC ([2]; ΔramRΔompK35/36::ramR::ompK36 revertant)?
A: The MIC was 1 µg/mL.

Q: What about the MIC ([2]; ΔramRΔompK35/36 mutant) of the same compound?
A: Its MIC is 8 µg/mL.

Q: And the MIC ([3]; A91V mutant (AdeR))?
A: Its MIC is 3 µg/mL.

Q: And the MIC ([3]; A94V mutant (AdeS))?
A: The MIC was 2 µg/mL.

Q: And the MIC ([3]; D20N mutant (AdeR))?
A: Its MIC is 2 µg/mL.

Q: What about the MIC ([3]; G30D mutant (AdeS)) of the same compound?
A: The MIC was 3 µg/mL.

Q: What about the MIC ([3]; KW1, read-out: MIC) of the same compound?
A: Its MIC is 0.25 µg/mL.

Q: And the MIC ([3]; P116L mutant (AdeR))?
A: The MIC was 1.5 µg/mL.

Q: What about the MIC ([3]; R152K mutant (AdeS)) of the same compound?
A: The MIC was 2 µg/mL.

Q: What about the MIC ([3]; T153M mutant (AdeS)) of the same compound?
A: Its MIC is 3 µg/mL.

Q: And the MIC ([4]; NVT1001, Tet(A) on pACYC177, read-out: MIC)?
A: Its MIC is 8 µg/mL.

Q: And the MIC ([4]; NVT1001, Tet(B) on pACYC177, read-out: MIC)?
A: The MIC was 1 µg/mL.

Q: And the MIC ([4]; NVT1001, Tet(C) on pACYC177, read-out: MIC)?
A: Its MIC is 1 µg/mL.

Q: And the MIC ([4]; NVT1001, Tet(D) on pACYC177, read-out: MIC)?
A: The MIC was 1 µg/mL.

Q: And the MIC ([4]; NVT1001, Tet(M) on pACYC177, read-out: MIC)?
A: The MIC was 1 µg/mL.

Q: And the MIC ([4]; NVT1001, no supplemental plasmid, read-out: MIC)?
A: The MIC was 1 µg/mL.

Q: What about the MIC ([4]; ΔramR, Tet(A) on pACYC177) of the same compound?
A: Its MIC is 32 µg/mL.

Q: What about the MIC ([4]; ΔramR, Tet(B) on pACYC177) of the same compound?
A: The MIC was 8 µg/mL.

Q: What about the MIC ([4]; ΔramR, Tet(C) on pACYC177) of the same compound?
A: The MIC was 8 µg/mL.

Q: What about the MIC ([4]; ΔramR, Tet(D) on pACYC177) of the same compound?
A: The MIC was 8 µg/mL.

Q: And the MIC ([4]; ΔramR, Tet(M) on pACYC177)?
A: Its MIC is 8 µg/mL.

Q: What about the MIC ([4]; ΔramR, no supplemental plasmid) of the same compound?
A: The MIC was 8 µg/mL.

Q: And the “increase in the MIC” value ([4]; Tet(A) production)?
A: Its value is 8 fold.

Q: And the “effects on the MIC” value ([4]; production of Tet(B), Tet(C), Tet(D) or Tet(M), with or without ΔramR)?
A: The value was “no observable effects”.

Q: And the “increase in the MIC” value ([4]; {})?
A: The value was 8 fold.

Q: And the MIC ([5]; KW1, Tet(A) on pYMAb5)?
A: The MIC was 1 µg/mL.

Q: And the MIC ([5]; KW1, Tet(B) on pYMAb5)?
A: Its MIC is 0.38 µg/mL.

Q: And the MIC ([5]; KW1, Tet(M) on pYMAb5)?
A: The MIC was 0.38 µg/mL.

Q: What about the MIC ([5]; KW1, no supplemental plasmid) of the same compound?
A: The MIC was 0.38 µg/mL.

Q: What about the MIC ([5]; KW1 with shuttle vector pYMAb5) of the same compound?
A: Its MIC is 0.38 µg/mL.

Q: And the “effects on the MIC” value ([5]; production of Tet(B) or Tet(M))?
A: Its value is “no observable effects”.
